# Several values for one entry are separate records, joined by “and”; a condition that tells them apart may be missing. Identical values can stand only once.
# Test system: 377384-186-R-J1-PDC complex spheroid viability
# Assay: Anticancer human tumor 377384-186-R-J1-PDC patient-derived pancreatic carcinoma cell line growth inhibition [CLK]
# Settings: for viability, T/C: stronger effect = lower value
# In short: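 Patient-derived tumor cells grown as complex spheroids with HUVEC endothelial cells and mesenchymal stem cells, treated with drug combinations. Concentrations descend in half-log steps from near clinical Cmax, or from 10 microM if Cmax unknown.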
# [1] = curve of first compound, second compound 0.0316 µM
# [2] = curve of first compound, second compound 0.1 µM
# [3] = curve of first compound, second compound 0.316 µM
# [4] = curve of first compound, second compound 1 µM
# [5] = curve of first compound, second compound 3.16 µM
# [6] = curve of first compound, second compound 10 µM
# [7] = second compound 0.0316 µM, first compound 0.0316 µM
# [8] = second compound 0.0316 µM, first compound 0.1 µM
# [9] = second compound 0.0316 µM, first compound 0.316 µM
# [10] = second compound 0.0316 µM, first compound 1 µM
# [11] = second compound 0.0316 µM, first compound 3.16 µM
# [12] = second compound 0.0316 µM, first compound 10 µM
# [13] = second compound 0.1 µM, first compound 0.0316 µM
# [14] = second compound 0.1 µM, first compound 0.1 µM
# [15] = second compound 0.1 µM, first compound 0.316 µM
# [16] = second compound 0.1 µM, first compound 1 µM
# [17] = second compound 0.1 µM, first compound 3.16 µM
# [18] = second compound 0.1 µM, first compound 10 µM
# [19] = second compound 0.316 µM, first compound 0.0316 µM
# [20] = second compound 0.316 µM, first compound 0.1 µM
# [21] = second compound 0.316 µM, first compound 0.316 µM
# [22] = second compound 0.316 µM, first compound 1 µM
# [23] = second compound 0.316 µM, first compound 3.16 µM
# [24] = second compound 0.316 µM, first compound 10 µM
# [25] = second compound 1 µM, first compound 0.0316 µM
# [26] = second compound 1 µM, first compound 0.1 µM
# [27] = second compound 1 µM, first compound 0.316 µM
# [28] = second compound 1 µM, first compound 1 µM
# [29] = second compound 1 µM, first compound 3.16 µM
# [30] = second compound 1 µM, first compound 10 µM
# [31] = second compound 3.16 µM, first compound 0.0316 µM
# [32] = second compound 3.16 µM, first compound 0.1 µM
# [33] = second compound 3.16 µM, first compound 0.316 µM
# [34] = second compound 3.16 µM, first compound 1 µM
# [35] = second compound 3.16 µM, first compound 3.16 µM
# [36] = second compound 3.16 µM, first compound 10 µM
# [37] = second compound 10 µM, first compound 0.0316 µM
# [38] = second compound 10 µM, first compound 0.1 µM
# [39] = second compound 10 µM, first compound 0.316 µM
# [40] = second compound 10 µM, first compound 1 µM
# [41] = second compound 10 µM, first compound 3.16 µM
# [42] = second compound 10 µM, first compound 10 µM
# 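Also: spheroids exposed to agents for 7 days before reading.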
# 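For viability, T/C in this document: luminescence signal used as a stand-in for viable cells.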
compound,measurement,setting,value
CC(CO)NC(=O)c1cc(-c2ccc(Cl)cc2)nn(-c2cnn(C)c2)c1=O (centres undefined) + CNC(=O)c1ccc(Nc2nc(OC3CCCC3)c3c(-c4ccc5nc(C)oc5c4)c[nH]c3n2)c(OC)c1,IC50,[1],9170 nM
same,IC50,[2],3300 nM
same,IC50,[3],< 31.6 nM
same,IC50,[4],< 31.6 nM
same,IC50,[5],< 31.6 nM
same,IC50,[6],< 31.6 nM
same,"viability, T/C",[7],102%
same,"viability, T/C",[8],120%
same,"viability, T/C",[9],117%
same,"viability, T/C",[10],106%
same,"viability, T/C",[11],85.1%
same,"viability, T/C",[12],47.1%
same,"viability, T/C",[13],64.1%
same,"viability, T/C",[14],75.6%
same,"viability, T/C",[15],55.4%
same,"viability, T/C",[16],58.4%
same,"viability, T/C",[17],53.1%
same,"viability, T/C",[18],35.9%
same,"viability, T/C",[19],23.6%
same,"viability, T/C",[20],25.4%
same,"viability, T/C",[21],24.7%
same,"viability, T/C",[22],22.7%
same,"viability, T/C",[23],24.4%
same,"viability, T/C",[24],20.5%
same,"viability, T/C",[25],26.8%
same,"viability, T/C",[26],20.7%
same,"viability, T/C",[27],21%
same,"viability, T/C",[28],22%
same,"viability, T/C",[29],20.5%
same,"viability, T/C",[30],17.8%
same,"viability, T/C",[31],21%
same,"viability, T/C",[32],21.2%
same,"viability, T/C",[33],21.7%
same,"viability, T/C",[34],23.9%
same,"viability, T/C",[35],22.3%
same,"viability, T/C",[36],19.6%
same,"viability, T/C",[37],22.5%
same,"viability, T/C",[38],21.3%
same,"viability, T/C",[39],20.4%
same,"viability, T/C",[40],19.9%
same,"viability, T/C",[41],18.1%
same,"viability, T/C",[42],19.1%
C=CC(=O)Nc1cc(Nc2nccc(-c3cn(C)c4ccccc34)n2)c(OC)cc1N(C)CCN(C)C,"viability, T/C",compound 0.000949 µM,104% and 105%
same,"viability, T/C",compound 0.003 µM,84.7% and 99.9%
same,"viability, T/C",compound 0.00949 µM,85.3% and 108%
same,"viability, T/C",compound 0.03 µM,85.4% and 97.6%
same,"viability, T/C",compound 0.0949 µM,78% and 77.1%
same,"viability, T/C",compound 0.3 µM,50% and 62%
same,IC50,curve of compound,> 300 nM
CC(=O)O[C@H]1C(=O)[C@@]2(C)[C@H]([C@H](OC(=O)c3ccccc3)[C@]3(O)C[C@H](OC(=O)[C@H](O)[C@@H](NC(=O)c4ccccc4)c4ccccc4)C(C)=C1C3(C)C)[C@]1(OC(C)=O)CO[C@@H]1C[C@@H]2O,"viability, T/C",compound 0.0316 µM,7.92% and 6.8%
same,"viability, T/C",compound 0.1 µM,9.5% and 7.41%
same,"viability, T/C",compound 0.316 µM,10.5% and 9.32%
same,"viability, T/C",compound 1 µM,8.91% and 8.31%
same,"viability, T/C",compound 3.16 µM,10.3% and 8.38%
same,"viability, T/C",compound 10 µM,14.3% and 11.1%
same,IC50,curve of compound,< 31.6 nM
CCN1CCN(Cc2ccc(Nc3ncc(F)c(-c4cc(F)c5nc(C)n(C(C)C)c5c4)n3)nc2)CC1 + CN1CCN(c2cc(C(=O)Nc3cc4cc(-c5cnn(C)c5)ccc4cn3)ccn2)CC1,IC50,[1],364 nM
same,IC50,[2],514 nM
same,IC50,[3],< 3.16 nM
same,IC50,[4],< 3.16 nM
same,IC50,[5],< 3.16 nM
same,IC50,[6],< 3.16 nM
same,"viability, T/C","second compound 0.0316 µM, first compound 0.00316 µM",107%
same,"viability, T/C","second compound 0.0316 µM, first compound 0.01 µM",78.2%
same,"viability, T/C",[7],84%
same,"viability, T/C",[8],66.3%
same,"viability, T/C",[9],48.8%
same,"viability, T/C",[10],39.5%
same,"viability, T/C","second compound 0.1 µM, first compound 0.00316 µM",98.1%
same,"viability, T/C","second compound 0.1 µM, first compound 0.01 µM",101%
same,"viability, T/C",[13],76.7%
same,"viability, T/C",[14],79.8%
same,"viability, T/C",[15],54.6%
same,"viability, T/C",[16],40.5%
same,"viability, T/C","second compound 0.316 µM, first compound 0.00316 µM",24.1%
same,"viability, T/C","second compound 0.316 µM, first compound 0.01 µM",28.6%
same,"viability, T/C",[19],26%
same,"viability, T/C",[20],22.9%
same,"viability, T/C",[21],24.4%
same,"viability, T/C",[22],24.4%
same,"viability, T/C","second compound 1 µM, first compound 0.00316 µM",1.06%
same,"viability, T/C","second compound 1 µM, first compound 0.01 µM",1.3%
same,"viability, T/C",[25],1.79%
same,"viability, T/C",[26],1.66%
same,"viability, T/C",[27],1.27%
same,"viability, T/C",[28],1.25%
same,"viability, T/C","second compound 3.16 µM, first compound 0.00316 µM",0.33%
same,"viability, T/C","second compound 3.16 µM, first compound 0.01 µM",0.44%
same,"viability, T/C",[31],1.09%
same,"viability, T/C",[32],0.39%
same,"viability, T/C",[33],2.28%
same,"viability, T/C",[34],2.3%
same,"viability, T/C","second compound 10 µM, first compound 0.00316 µM",1.2%
same,"viability, T/C","second compound 10 µM, first compound 0.01 µM",0.43%
same,"viability, T/C",[37],0.55%
same,"viability, T/C",[38],0.44%
same,"viability, T/C",[39],1.76%
same,"viability, T/C",[40],0.24%
Cn1ncnc1[C@H]1c2n[nH]c(=O)c3cc(F)cc(c23)N[C@@H]1c1ccc(F)cc1,"viability, T/C",compound 0.000316 µM,86.8% and 87.2%
same,"viability, T/C",compound 0.001 µM,73.7% and 74.4%
same,"viability, T/C",compound 0.00316 µM,62.4% and 66.9%
same,"viability, T/C",compound 0.01 µM,57.6% and 62.5%
same,"viability, T/C",compound 0.0316 µM,53.4% and 47.6%
same,"viability, T/C",compound 0.1 µM,41.8% and 43.1%
same,IC50,curve of compound,30.7 nM and 33.4 nM
O=C(c1cc(Cc2n[nH]c(=O)c3ccccc23)ccc1F)N1CCN(C(=O)C2CC2)CC1 + CNC(=O)c1ccc(Nc2nc(OC3CCCC3)c3c(-c4ccc5nc(C)oc5c4)c[nH]c3n2)c(OC)c1,IC50,[1],6380 nM
same,IC50,[2],991 nM
same,IC50,[3],< 31.6 nM
same,IC50,[4],< 31.6 nM
same,IC50,[5],< 31.6 nM
same,IC50,[6],< 31.6 nM
same,"viability, T/C",[7],83.7%
same,"viability, T/C",[8],84.7%
same,"viability, T/C",[9],78.9%
same,"viability, T/C",[10],75.9%
same,"viability, T/C",[11],64.9%
same,"viability, T/C",[12],40.3%
same,"viability, T/C",[13],52.1%
same,"viability, T/C",[14],50.2%
same,"viability, T/C",[15],57%
same,"viability, T/C",[16],49%
same,"viability, T/C",[17],38.3%
same,"viability, T/C",[18],29.7%
same,"viability, T/C",[19],22.3%
same,"viability, T/C",[20],17.4%
same,"viability, T/C",[21],20.7%
same,"viability, T/C",[22],17.8%
same,"viability, T/C",[23],15.3%
same,"viability, T/C",[24],17.5%
same,"viability, T/C",[25],23.3%
same,"viability, T/C",[26],18.6%
same,"viability, T/C",[27],17.9%
same,"viability, T/C",[28],21.3%
same,"viability, T/C",[29],20%
same,"viability, T/C",[30],17.4%
same,"viability, T/C",[31],19.6%
same,"viability, T/C",[32],21.1%
same,"viability, T/C",[33],22.2%
same,"viability, T/C",[34],19.4%
same,"viability, T/C",[35],22%
same,"viability, T/C",[36],18.4%
same,"viability, T/C",[37],18.7%
same,"viability, T/C",[38],19.8%
same,"viability, T/C",[39],21.8%
same,"viability, T/C",[40],19.8%
same,"viability, T/C",[41],18.9%
same,"viability, T/C",[42],15.2%
O=c1[nH]cc(F)c(=O)[nH]1 + CNC(=O)c1ccc(Nc2nc(OC3CCCC3)c3c(-c4ccc5nc(C)oc5c4)c[nH]c3n2)c(OC)c1,IC50,[1],3650 nM
same,IC50,[2],46.4 nM
same,IC50,[3],< 31.6 nM
same,IC50,[4],< 31.6 nM
same,IC50,[5],< 31.6 nM
same,IC50,[6],< 31.6 nM
same,"viability, T/C",[7],98%
same,"viability, T/C",[8],98.3%
same,"viability, T/C",[9],96%
same,"viability, T/C",[10],82.1%
same,"viability, T/C",[11],50.3%
same,"viability, T/C",[12],46.3%
same,"viability, T/C",[13],49.6%
same,"viability, T/C",[14],50.9%
same,"viability, T/C",[15],45.4%
same,"viability, T/C",[16],54.5%
same,"viability, T/C",[17],41.6%
same,"viability, T/C",[18],43.5%
same,"viability, T/C",[19],20.4%
same,"viability, T/C",[20],20.3%
same,"viability, T/C",[21],16.7%
same,"viability, T/C",[22],16.4%
same,"viability, T/C",[23],14.5%
same,"viability, T/C",[24],14%
same,"viability, T/C",[25],22%
same,"viability, T/C",[26],17.8%
same,"viability, T/C",[27],19.2%
same,"viability, T/C",[28],14.9%
same,"viability, T/C",[29],13.2%
same,"viability, T/C",[30],10.7%
same,"viability, T/C",[31],20.2%
same,"viability, T/C",[32],19.7%
same,"viability, T/C",[33],17.6%
same,"viability, T/C",[34],16.7%
same,"viability, T/C",[35],12.6%
same,"viability, T/C",[36],9.93%
same,"viability, T/C",[37],16.8%
same,"viability, T/C",[38],17.2%
same,"viability, T/C",[39],17.1%
same,"viability, T/C",[40],16%
same,"viability, T/C",[41],10.8%
same,"viability, T/C",[42],11.4%

# From PubChem BioAssay AID2060616 (Molecular Pharmacology Branch, DTP, NCI, 2025)
